US20200170983A1, “METHODS FOR THE TREATMENT OF BLADDER CANCER” (Cipla Limited, priority 2015, published 2020)
pIC50: −log10 of the molar value. Where two headings read alike, the source gives them in different places.

Columns and labels:
[1] = tested on: 5637; assay: In vitro 2D assay (CellTiter-Blue cell viability); assay type: cell-based, human
Excerpt: (§1) In the present study the human bladder cancer cell lines BXF 1036, BXF 1218, BXF 1352, 5637 and T24 were used. BXF 1036, BXF 1218 and BXF 1352 were established at Oncotest from the corresponding human patient derived xenograft. T24 was purchased from ATCC (Rockville, Md., USA) and 5637 was from DSMZ (Braunschweig, Germany). Authenticity of cell lines was confirmed at the DSMZ by STR (short tandem repeat) analysis, a PCR based DNA-fingerprinting methodology. Cell lines were routinely passaged once or twice weekly and maintained in culture for up to 20 passages. All cells were grown at 37° C. in a humidified atmosphere with 5% CO2 in RPMI 1640 medium (25 mM HEPES, with L-glutamine, #FG1385, Biochrom, Berlin, Germany) supplemented with 10% (v/v) fetal calf serum (Sigma, Taufkirchen, Germany) and 0.1 mg/mL gentamicin (Life Technologies, Karlsruhe, Germany).
(§2) The CellTiter-Blue® Cell Viability Assay (#G8081, Promega) was used according to manufacturer's instructions. Briefly, cells were harvested from exponential phase cultures, […] on the cell line's growth rate. After a 24 h recovery period to allow the cells to resume exponential growth, test compounds were added. Compounds were applied at 9 concentrations in half-log increments in duplicate and treatment continued for 96 h. After 96 h treatment of cells, 20 μL/well CellTiter-Blue® reagent was added.
(§3) Following an incubation period of up to four hours, fluorescence (FU) was measured by using the Enspire Multimode Plate Reader (excitation λ=531 nm, emission λ=615 nm). For calculations, the mean values of duplicate/sixfold (untreated control) data were used. Sigmoidal concentration-response curves were fitted to the data points (T/C values) obtained for each cell line using 4 parameter non-linear curve fit (Oncotest Warehouse Software).

[2] = tested on: BXF 1036; assay: In vitro 2D assay (CellTiter-Blue cell viability); assay type: cell-based, human; details: BXF 1036, 96 h treatment
Excerpt: as §1, §2, §3

[3] = tested on: BXF 1352; assay: In vitro 2D assay (CellTiter-Blue cell viability); assay type: cell-based, human; details: BXF 1352, 96 h treatment
Excerpt: as §1, §2, §3

[4] = tested on: T24; assay: In vitro 2D assay (CellTiter-Blue cell viability); assay type: cell-based, human
Excerpt: as §1, §2, §3

[5] = tested on: BXF 1218; assay: In vitro 2D assay (CellTiter-Blue cell viability); assay type: cell-based, human; details: BXF 1218, 96 h treatment
Excerpt: as §1, §2, §3

[6] = tested on: BXF T24; assay: In vitro 3D clonogenic assay (colony formation in semi-solid medium); assay type: cell-based, human; details: for pIC50: BXF T24, absolute IC50
Protocol: (§4) The clonogenic assay was carried out in a 96 well plate format using ultra low attachment plates. For each test, cells were prepared as described above and assay plates were prepared as follows: each test well contained a layer of semi-solid medium with tumor cells (50 μL), and a second layer of medium supernatant with or without test compound (100 μL). The cell layer consisted of 2·103 to 3·103 tumor cells per well, which were seeded in 50 μL/well cell culture medium (IMDM, supplemented with 20% (v/v) fetal calf serum, 0.01% (w/v) gentamicin, and 0.4% (w/v) agar. After 24 hours the test compounds were added after serial dilution in cell culture medium, and left on the cells for the duration of the experiment (continuous exposure, 100 μl drug overlay). Every plate included six untreated control wells and drug-treated groups in duplicate at 9 concentrations. Cultures were incubated at 37° C. and 7.5% CO2 in a humidified atmosphere for 8 to 13 days and monitored closely for colony growth using an inverted microscope. Within this period, ex vivo tumor growth led to the formation of colonies with a diameter of >50 μm. At the time of maximum colony formation, counts were performed with an automatic image analysis system (Bioreader 5000-Wa Biosys GmbH). 48 hours prior to evaluation, vital colonies were stained with a sterile aqueous solution of 2-(4-iodophenyl)-3-(4-nitrophenyl)-5-phenyltetrazolium chloride (1 mg/ml, 100 μl/well).

[7] = tested on: BXF 1036; assay: as above; assay type: cell-based, human; details: for pIC50: BXF 1036, absolute IC50
Protocol: as §4

[8] = tested on: BXF 5637; assay: as above; assay type: cell-based, human; details: BXF 5637, absolute IC50
Protocol: as §4

[9] = tested on: BXF 1352; assay: as above; assay type: cell-based, human; details: BXF 1352, absolute IC50
Protocol: as §4

[10] = tested on: BXF 1218; assay: as above; assay type: cell-based, human; details: for pIC50: BXF 1218, absolute IC50
Protocol: as §4

[11] = tested on: five selected human bladder cancer cell lines; assay: In vitro 2D assay, mean over the panel; assay type: cell-based
Excerpt: as §1, §2, §3

[12] = tested on: BXF T24; assay: Combination study, 3D clonogenic assay, 5x5 matrix, Bliss independence; assay type: cell-based, human; details: BXF T24, monotherapy controls of the 5x5 combination matrix, read-out: IC50, colony formation, single agent
Protocol: (§5) The objective of this study was to assess anti-tumor efficacy of adapalene in combination with cisplatin in a 5×5 matrix combination format against various bladder cancer cell lines. Efficacy of the combinations was assessed by measuring anchorage-independent growth and in vitro tumor colony formation using a 3D clonogenic assay in cell lines BXF 1036L, BXF 1218L, and BXF T24.
(§6) The compounds were tested in bladder cell lines, namely BXF 1036L, BXF 1218L, and BXF T24. Cells lines of BXF 1036L and BXF 1218L were established at Oncotest in Freiburg from the corresponding patient-derived xenografts. BXF T24 cells were obtained from American Type Culture Collection (Rockville, Md., USA). Authenticity of cell lines was confirmed at the DSMZ by STR analysis.
(§7) Cell lines were routinely passaged once or twice weekly and maintained in culture for up to 20 passages. Cells were grown at 37° C. in a humidified atmosphere with 5% CO2 in RPMI 1640 medium (25 mM HEPES, with L-glutamine, Biochrom) supplemented with 10% (v/v) fetal calf serum and 0.1 mg/mL gentamicin. The percentage of viable cells was determined in a Neubauer-hemocytometer using trypan blue exclusion.
(§8) The clonogenic assay was carried out in a 96 well plate format using ultra low attachment plates. For each test cells were prepared as described above, and assay plates were prepared as follows: each test well contained a layer of semi-solid medium with tumor cells (50 μl), and a second layer of medium supernatant with or without test compounds (100 μl). The cell layer consisted of 5·10^3 to 7.5·10^3 tumor cells per well, which were seeded in 50 μl/well cell culture medium (IMDM, supplemented with 20% (v/v) fetal calf serum, 0.01% (w/v) gentamicin, and 0.4% (w/v) agar). After 24 h, the soft-agar layer was covered with 90 μl of the same culture medium without agar, and compounds were added after serial dilution in DMSO and transfer in cell culture medium and left on the cells for the duration of the experiment (continuous exposure, 100 μL total drug overlay). Every plate included six untreated control wells and drug-treated groups. Cultures were incubated at 37° C. and 7.5% CO2 in a humidified atmosphere for 8 to 13 days and monitored closely for colony growth using an inverted microscope. Within this period, ex vivo tumor growth led to the formation of colonies with a diameter of >50 μm. At the time of maximum colony formation, counts were performed with an automatic image analysis system (CellInsight NXT, Thermo Scientific). 48 hours prior to evaluation, vital colonies were stained with a sterile aqueous solution of 2-(4-iodophenyl)-3-(4-nitrophenyl)-5-phenyltetrazolium chloride (1 mg/ml, 100 μl/well).

[13] = tested on: BXF 1036L; assay: as above; assay type: cell-based, human; details: monotherapy controls of the 5x5 combination matrix, read-out: IC50, colony formation, single agent
Protocol: as §5, §6, §7, §8

[14] = tested on: 5 human tumor cell lines of bladder cancer; assay: In vitro 3D clonogenic assay, mean over the panel; assay type: cell-based; details: for pIC50: colony formation; for IC50, Geo. Mean: geometric mean of five cell lines
Protocol: as §4

[15] = tested on: BXF 1218L; assay: Combination study, 3D clonogenic assay, 5x5 matrix, Bliss independence; assay type: cell-based, human; details: monotherapy controls of the 5x5 combination matrix, read-out: IC50, colony formation, single agent
Protocol: The objective of this study was to assess anti-tumor efficacy of adapalene in combination with cisplatin in a 5×5 matrix combination format against various bladder cancer cell lines. Efficacy of the combinations was assessed by measuring anchorage-independent growth and in vitro tumor colony formation using a 3D clonogenic assay in cell lines BXF […], BXF […], and BXF T24. […] The compounds were tested in bladder cell lines, namely BXF […], BXF […], and BXF T24. Cells lines of BXF […] and BXF […] were established at Oncotest in Freiburg from the corresponding patient-derived xenografts. BXF T24 cells were obtained from American Type Culture Collection (Rockville, Md., USA). Authenticity of cell lines was confirmed at the DSMZ by STR analysis. Cell lines were routinely passaged once or twice weekly and maintained in culture for up to 20 passages. Cells were grown at 37° C. in a humidified atmosphere with 5% CO2 in RPMI 1640 medium (25 mM HEPES, with L-glutamine, Biochrom) supplemented with 10% (v/v) fetal calf serum and 0.1 mg/mL gentamicin. The percentage of viable cells was determined in a Neubauer-hemocytometer using trypan blue exclusion. […] Cultures were incubated at 37° C. and 7.5% CO2 in a humidified atmosphere for 8 to 13 days and monitored closely for colony growth using an inverted microscope. […]

SMILES: COc1ccc(-c2ccc3cc(C(=O)O)ccc3c2)cc1C12CC3CC(CC(C3)C1)C2 [Adapalene]
- pIC50 ([1]; Homo sapiens, 2D assay, 5637, 96 h treatment): 5.27
- pIC50 ([2]; Homo sapiens): 5.00
- pIC50 ([3]; Homo sapiens): 4.86
- pIC50 ([4]; Homo sapiens, T-24, T24, 96 h treatment): 5.48
- pIC50 ([5]; Homo sapiens): 5.22
- activity relative to mean IC50 (above average = individual IC50 value < 1/2 mean IC50) ([6]; BXF T-24): above average activity
- pIC50 ([6]; Homo sapiens): ≤ 4.00
- pIC50 ([7]; Homo sapiens): 5.01
- pIC50 ([8]; Homo sapiens): 5.04
- pIC50 ([9]; Homo sapiens): 4.89
- activity relative to mean IC50 (above average = individual IC50 value < 1/2 mean IC50) ([10]; BXF 1218): above average activity
- pIC50 ([10]; Homo sapiens): 5.32
- pIC50 ([11]; Homo sapiens, geometric mean of five cell lines, read-out: IC50, Geo. Mean): 5.17
- difference between the most sensitive and most resistant cell line ([11]; IC50 of T24 vs BXF 1352): 4 fold
- pIC50 ([12]; Homo sapiens): 5.46
- pIC50 ([13]; Homo sapiens): 4.97
- pIC50 ([14]; Homo sapiens, read-out: mean absolute IC50 value): 4.85
- pIC50 ([14]; Homo sapiens, read-out: mean relative IC50 value): 5.13
- IC50, Geo. Mean [14]: 14.01 µM

SMILES: N.N.[Cl][Pt][Cl] [Cisplatin, cisplatin]
- pIC50 ([1]; 2D assay, BXF 5637, 96 h treatment): 5.01
- pIC50 [2]: 5.02
- pIC50 [3]: 4.77
- pIC50 ([4]; BXF T24, 96 h treatment): 5.38
- pIC50 [5]: 5.15
- pIC50 [6]: 4.28
- pIC50 [7]: 5.40
- activity relative to mean IC50 (above average = individual IC50 value < 1/2 mean IC50) ([7]; BXF 1036, based on relative IC50 values): above average activity
- pIC50 [8]: 5.00
- pIC50 [9]: 5.06
- pIC50 [10]: 5.27
- pIC50 ([11]; all cell lines tested, read-out: geometric mean absolute IC50 value): 5.07
- pIC50 [12]: 4.11
- pIC50 [13]: 5.22
- pIC50 [15]: 5.17
- pIC50 ([14]; read-out: mean absolute IC50 value): 5.00
- pIC50 ([14]; read-out: mean relative IC50 value): 5.01
- IC50, Geo. Mean [14]: 9.93 µM
- Bottom plateaus of the concentration-effect curves ([14]; responding tumor models): < 10%
